Key:
[1] = target: T1, human calcium channel α1I subunit (α1I channel) (Homo sapiens, UniProt Q9P0X4, I1040V); assay: Calcium influx measured by FLIPR in B21 cells; type: cell-based; details: for IC50: B21 cell induced by 0.1 uM tetracycline, mean ± S.E., n=3, read-out: IC50 for inhibition of calcium influx
T1 construct: expressed in transfected cells
Protocol: Intracellular calcium concentration was monitored by the FLIPR™ technique (Molecular Devices, Sunnyvale, Calif.). Briefly, the cells were seeded into black 96 well plates with clear bottoms at a density of 35,000 cells/well and cultured for 5 hr.

[2] = target: α1I T-type calcium channel (Homo sapiens, UniProt Q9P0X4, I1040V); assay: Whole-cell patch clamp (voltage-clamp) recordings on the B21 cell line
α1I T-type calcium channel, sequence (Q9P0X4 1-1981 isoform Q9P0X4-3 I1005V): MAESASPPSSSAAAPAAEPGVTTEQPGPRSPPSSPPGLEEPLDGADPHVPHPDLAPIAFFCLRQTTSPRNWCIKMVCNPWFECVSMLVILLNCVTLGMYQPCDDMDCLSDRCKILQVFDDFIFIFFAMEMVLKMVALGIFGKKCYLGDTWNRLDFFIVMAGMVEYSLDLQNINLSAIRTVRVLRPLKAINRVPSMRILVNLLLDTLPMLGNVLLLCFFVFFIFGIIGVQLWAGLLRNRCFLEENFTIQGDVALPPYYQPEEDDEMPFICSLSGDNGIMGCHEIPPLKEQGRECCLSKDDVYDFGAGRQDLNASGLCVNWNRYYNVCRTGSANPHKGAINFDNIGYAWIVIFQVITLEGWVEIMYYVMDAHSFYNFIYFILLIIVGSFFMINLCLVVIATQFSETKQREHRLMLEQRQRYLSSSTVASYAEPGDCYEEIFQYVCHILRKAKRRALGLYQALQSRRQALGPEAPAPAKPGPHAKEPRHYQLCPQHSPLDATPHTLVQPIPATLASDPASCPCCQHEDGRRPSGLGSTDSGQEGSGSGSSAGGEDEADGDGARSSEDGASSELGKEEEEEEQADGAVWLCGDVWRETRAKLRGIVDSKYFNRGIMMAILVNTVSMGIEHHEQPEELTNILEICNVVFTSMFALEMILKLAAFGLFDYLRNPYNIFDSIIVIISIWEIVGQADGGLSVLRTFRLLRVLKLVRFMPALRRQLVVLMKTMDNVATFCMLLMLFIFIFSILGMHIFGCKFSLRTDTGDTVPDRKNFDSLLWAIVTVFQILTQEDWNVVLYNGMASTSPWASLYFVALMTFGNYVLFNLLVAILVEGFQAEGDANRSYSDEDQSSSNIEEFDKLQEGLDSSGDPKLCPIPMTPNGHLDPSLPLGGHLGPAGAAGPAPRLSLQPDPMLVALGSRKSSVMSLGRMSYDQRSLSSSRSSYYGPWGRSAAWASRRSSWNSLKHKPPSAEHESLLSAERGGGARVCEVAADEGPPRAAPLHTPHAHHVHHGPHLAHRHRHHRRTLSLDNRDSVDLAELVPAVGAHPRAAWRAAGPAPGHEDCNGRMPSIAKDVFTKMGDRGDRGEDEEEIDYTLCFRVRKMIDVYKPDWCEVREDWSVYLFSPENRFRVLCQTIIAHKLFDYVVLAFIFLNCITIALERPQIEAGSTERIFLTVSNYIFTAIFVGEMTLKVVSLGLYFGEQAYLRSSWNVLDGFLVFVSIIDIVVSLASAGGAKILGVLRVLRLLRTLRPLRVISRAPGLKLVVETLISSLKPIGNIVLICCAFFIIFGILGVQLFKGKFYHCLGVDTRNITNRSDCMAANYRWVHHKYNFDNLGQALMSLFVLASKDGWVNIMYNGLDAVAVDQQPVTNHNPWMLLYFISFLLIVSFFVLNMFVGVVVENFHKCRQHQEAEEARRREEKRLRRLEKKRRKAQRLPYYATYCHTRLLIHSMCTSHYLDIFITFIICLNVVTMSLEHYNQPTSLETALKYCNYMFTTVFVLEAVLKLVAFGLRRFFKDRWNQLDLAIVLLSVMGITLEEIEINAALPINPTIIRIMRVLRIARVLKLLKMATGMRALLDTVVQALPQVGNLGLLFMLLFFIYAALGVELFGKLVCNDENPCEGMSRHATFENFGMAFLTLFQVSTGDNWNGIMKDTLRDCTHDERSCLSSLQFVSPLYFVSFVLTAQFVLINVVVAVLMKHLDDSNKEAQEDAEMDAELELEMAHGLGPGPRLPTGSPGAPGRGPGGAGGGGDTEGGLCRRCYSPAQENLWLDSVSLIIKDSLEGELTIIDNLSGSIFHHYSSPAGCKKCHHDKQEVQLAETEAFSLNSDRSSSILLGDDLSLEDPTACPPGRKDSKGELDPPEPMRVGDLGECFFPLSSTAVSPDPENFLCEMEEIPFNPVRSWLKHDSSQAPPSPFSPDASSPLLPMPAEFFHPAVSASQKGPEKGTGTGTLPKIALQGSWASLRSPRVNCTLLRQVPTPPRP

[3] = test system: T-type currents in thalamic (ventrobasal complex) neurons; details: physiologically relevant doses; Coulter et al. 1989; cited from earlier work
[4] = test system: T-type Ca^2+ current in DRG neurons; details: freshly dissected DRG neurons of adult rats; Todorovic and Lingle 1998; cited from earlier work

T1 sequence (Q9P0X4 1-1981 isoform Q9P0X4-3 I1005V): as above

SMILES	IC50 [1]	effect on T-type currents in thalamic neurons (in words) [3]	also measured
[Ca+2] [Ca^2+]	–	–	EC50 ([1]; B21 cells induced by 0.1 μM tetracycline, read-out: EC50 of Ca^2+ influx after Ca^2+ addition): 1000 µM
CC1(C)OC(=O)NC1=O [dimethadione]	–	partially depress	–
CCC1(C)CC(=O)NC1=O (centres unmarked) [ethosuximide]	–	partially depress	effect on T-type Ca^2+ current in DRG neurons (in words) [4]: fully block

More lines, main results first:

IC50 [1]	SMILES	effect on T-type currents in thalamic neurons (in words) [3]	also measured
9.51 ± 0.788 µM	COCCOC(=O)C1=C(C)NC(C)=C(C(=O)OC(C)C)C1c1cccc([N+](=O)[O-])c1 (centres unmarked) [Nimodipine]	–	–
1 ± 0.109 µM	O=c1[nH]c2ccccc2n1C1CCN(CCCC(c2ccc(F)cc2)c2ccc(F)cc2)CC1 [Pimozide]	–	% Inhibition (Ave ± SEM) of peak calcium current ([2]; 100 nM antagonist, −100 mV holding potential): 32 ± 2%; potency estimated from few doses ([2]; read-out: Est IC50): 0.216 µM

Source: patent US20080248040A1, “Nucleic Acid Molecules Encoding Novel Human Low-Voltage Activated Calcium Channel Proteins, Designed-Alpha 1I-1 and Alpha 1I-2, Encoded Proteins and Methods of Use Thereof” (priority 2003, published 2008)
